Literature values as cited in article PMC9851200, “Multiparameter phenotypic screening for endogenous TFEB and TFE3 translocation identifies novel chemical series modulating lysosome function” (Autophagy, 2022).

Legend:
Set-up in all cases: method as in original PKIS2 published data
[1] = target: T1, kinases (KINOMEscan panel) (Homo sapiens, UniProt Q04771); settings: ACVR1; Published KINOMEscan; ref original PKIS2 published data; cited from earlier work
T1 sequence (Q04771 21-509): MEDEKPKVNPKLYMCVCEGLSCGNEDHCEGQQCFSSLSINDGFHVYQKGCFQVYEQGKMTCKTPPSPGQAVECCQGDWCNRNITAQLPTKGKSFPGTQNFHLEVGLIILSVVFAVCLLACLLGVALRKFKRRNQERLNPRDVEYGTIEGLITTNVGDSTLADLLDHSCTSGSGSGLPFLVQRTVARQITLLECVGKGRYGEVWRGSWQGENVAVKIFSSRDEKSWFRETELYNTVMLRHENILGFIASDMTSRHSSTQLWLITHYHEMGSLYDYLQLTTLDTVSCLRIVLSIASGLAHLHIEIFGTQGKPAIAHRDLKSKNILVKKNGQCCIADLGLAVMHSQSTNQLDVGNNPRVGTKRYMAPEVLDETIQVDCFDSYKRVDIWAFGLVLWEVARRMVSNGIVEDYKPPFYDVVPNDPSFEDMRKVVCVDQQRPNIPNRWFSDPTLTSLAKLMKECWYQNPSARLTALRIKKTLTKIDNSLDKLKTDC

[2] = target: kinases (KINOMEscan panel) (Homo sapiens, UniProt O43353); settings: RIPK2; Published KINOMEscan; ref original PKIS2 published data; cited from earlier work
[3] = target: kinases (KINOMEscan panel) (Homo sapiens, UniProt P07332); settings: kinase FES; Published KINOMEscan; ref original PKIS2 published data; cited from earlier work
[4] = target: T2, kinases (KINOMEscan panel) (Homo sapiens, UniProt Q9UPZ9); settings: CILK1; Published KINOMEscan; ref original PKIS2 published data; cited from earlier work
T2 sequence (Q9UPZ9 1-632): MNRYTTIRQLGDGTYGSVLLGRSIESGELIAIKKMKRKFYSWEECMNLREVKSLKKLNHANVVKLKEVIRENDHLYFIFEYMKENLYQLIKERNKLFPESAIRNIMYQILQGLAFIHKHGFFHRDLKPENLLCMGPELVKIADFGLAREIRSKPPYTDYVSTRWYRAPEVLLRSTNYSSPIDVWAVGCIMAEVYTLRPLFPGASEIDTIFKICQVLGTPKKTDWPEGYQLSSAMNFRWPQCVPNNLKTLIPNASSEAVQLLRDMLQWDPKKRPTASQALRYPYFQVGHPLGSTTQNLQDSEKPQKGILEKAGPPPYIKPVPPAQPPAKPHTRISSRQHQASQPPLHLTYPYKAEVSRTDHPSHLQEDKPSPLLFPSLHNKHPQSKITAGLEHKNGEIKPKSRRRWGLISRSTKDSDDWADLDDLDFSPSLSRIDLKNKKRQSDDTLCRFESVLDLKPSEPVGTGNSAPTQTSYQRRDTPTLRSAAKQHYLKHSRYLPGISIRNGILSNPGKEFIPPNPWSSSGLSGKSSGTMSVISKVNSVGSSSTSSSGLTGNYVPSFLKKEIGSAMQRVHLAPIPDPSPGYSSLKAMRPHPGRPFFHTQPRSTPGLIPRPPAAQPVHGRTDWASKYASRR

[5] = target: kinases (KINOMEscan panel) (Homo sapiens, UniProt P29376); settings: LTK; Published KINOMEscan; ref original PKIS2 published data; cited from earlier work
[6] = target: kinases (KINOMEscan panel) (Homo sapiens, UniProt Q9H1R3); settings: MYLK2; Published KINOMEscan; ref original PKIS2 published data; cited from earlier work
[7] = target: T3, kinases (KINOMEscan panel) (Homo sapiens, UniProt P35626); settings: GRK3; Published KINOMEscan; ref original PKIS2 published data; cited from earlier work
T3 sequence (P35626 1-688): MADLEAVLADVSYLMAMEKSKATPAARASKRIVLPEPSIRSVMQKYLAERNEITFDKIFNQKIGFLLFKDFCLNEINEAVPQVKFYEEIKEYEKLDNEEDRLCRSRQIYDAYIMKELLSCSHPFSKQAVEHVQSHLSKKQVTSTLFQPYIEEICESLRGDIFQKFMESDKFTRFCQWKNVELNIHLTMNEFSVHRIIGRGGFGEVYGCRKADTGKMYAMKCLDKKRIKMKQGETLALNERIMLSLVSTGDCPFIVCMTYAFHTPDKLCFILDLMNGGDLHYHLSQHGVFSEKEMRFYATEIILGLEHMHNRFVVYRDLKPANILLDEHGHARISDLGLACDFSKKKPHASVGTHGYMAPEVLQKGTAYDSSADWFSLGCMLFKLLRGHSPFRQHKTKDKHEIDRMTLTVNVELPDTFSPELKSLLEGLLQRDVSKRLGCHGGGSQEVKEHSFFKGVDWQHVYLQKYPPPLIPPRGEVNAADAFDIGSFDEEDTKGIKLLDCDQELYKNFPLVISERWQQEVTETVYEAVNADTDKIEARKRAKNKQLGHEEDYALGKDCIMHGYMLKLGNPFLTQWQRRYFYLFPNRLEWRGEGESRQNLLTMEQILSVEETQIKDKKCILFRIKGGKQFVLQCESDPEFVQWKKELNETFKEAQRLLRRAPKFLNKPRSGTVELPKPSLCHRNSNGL

[8] = target: kinases (KINOMEscan panel) (Homo sapiens, UniProt O75116); settings: kinase ROCK2; Published KINOMEscan; ref original PKIS2 published data; cited from earlier work
[9] = target: kinases (KINOMEscan panel) (Homo sapiens, UniProt Q96SB4); settings: kinase SRPK1; Published KINOMEscan; ref original PKIS2 published data; cited from earlier work
Sequence of kinases (KINOMEscan panel) (Homo sapiens, UniProt Q96SB4) (Q96SB4 whole entry): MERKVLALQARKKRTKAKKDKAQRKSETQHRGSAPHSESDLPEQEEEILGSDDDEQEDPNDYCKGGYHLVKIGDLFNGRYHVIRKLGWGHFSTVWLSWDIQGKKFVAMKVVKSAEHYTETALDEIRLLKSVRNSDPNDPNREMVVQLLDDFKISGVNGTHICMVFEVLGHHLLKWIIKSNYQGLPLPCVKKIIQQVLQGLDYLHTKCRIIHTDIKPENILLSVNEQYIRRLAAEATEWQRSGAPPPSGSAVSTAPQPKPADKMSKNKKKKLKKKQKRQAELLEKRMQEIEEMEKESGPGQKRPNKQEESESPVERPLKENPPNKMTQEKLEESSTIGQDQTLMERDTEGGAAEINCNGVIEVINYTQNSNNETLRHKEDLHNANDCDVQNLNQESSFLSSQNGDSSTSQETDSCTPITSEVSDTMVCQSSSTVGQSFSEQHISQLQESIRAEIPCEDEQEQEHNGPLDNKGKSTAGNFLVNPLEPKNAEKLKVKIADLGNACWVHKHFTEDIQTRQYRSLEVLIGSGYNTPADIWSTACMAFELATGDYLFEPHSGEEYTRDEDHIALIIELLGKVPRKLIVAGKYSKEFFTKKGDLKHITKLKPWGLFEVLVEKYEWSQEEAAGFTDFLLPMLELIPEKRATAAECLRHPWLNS

Sequence of kinases (KINOMEscan panel) (Homo sapiens, UniProt P29376) (P29376 17-864): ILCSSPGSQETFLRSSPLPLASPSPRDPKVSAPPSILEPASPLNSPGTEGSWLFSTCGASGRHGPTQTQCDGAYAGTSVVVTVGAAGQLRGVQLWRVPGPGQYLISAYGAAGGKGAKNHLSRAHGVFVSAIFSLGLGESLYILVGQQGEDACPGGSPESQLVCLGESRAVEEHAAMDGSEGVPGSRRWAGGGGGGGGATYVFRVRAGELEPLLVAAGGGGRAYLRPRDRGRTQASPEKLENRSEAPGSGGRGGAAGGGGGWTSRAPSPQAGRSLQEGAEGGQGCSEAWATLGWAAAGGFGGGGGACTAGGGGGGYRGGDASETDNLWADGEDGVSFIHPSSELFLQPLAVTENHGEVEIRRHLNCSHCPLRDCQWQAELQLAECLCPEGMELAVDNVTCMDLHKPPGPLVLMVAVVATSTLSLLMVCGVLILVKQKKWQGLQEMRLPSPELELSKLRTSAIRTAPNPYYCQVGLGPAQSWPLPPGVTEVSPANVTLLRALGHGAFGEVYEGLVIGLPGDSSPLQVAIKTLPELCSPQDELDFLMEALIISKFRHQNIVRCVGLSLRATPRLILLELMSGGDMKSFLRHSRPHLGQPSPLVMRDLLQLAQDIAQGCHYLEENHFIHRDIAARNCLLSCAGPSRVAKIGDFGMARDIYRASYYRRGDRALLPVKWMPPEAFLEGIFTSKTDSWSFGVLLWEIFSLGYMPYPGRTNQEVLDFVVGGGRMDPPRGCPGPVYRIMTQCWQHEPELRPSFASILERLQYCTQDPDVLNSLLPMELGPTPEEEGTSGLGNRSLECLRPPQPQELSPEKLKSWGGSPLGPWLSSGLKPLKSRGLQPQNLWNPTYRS
Sequence of kinases (KINOMEscan panel) (Homo sapiens, UniProt O75116) (O75116 whole entry): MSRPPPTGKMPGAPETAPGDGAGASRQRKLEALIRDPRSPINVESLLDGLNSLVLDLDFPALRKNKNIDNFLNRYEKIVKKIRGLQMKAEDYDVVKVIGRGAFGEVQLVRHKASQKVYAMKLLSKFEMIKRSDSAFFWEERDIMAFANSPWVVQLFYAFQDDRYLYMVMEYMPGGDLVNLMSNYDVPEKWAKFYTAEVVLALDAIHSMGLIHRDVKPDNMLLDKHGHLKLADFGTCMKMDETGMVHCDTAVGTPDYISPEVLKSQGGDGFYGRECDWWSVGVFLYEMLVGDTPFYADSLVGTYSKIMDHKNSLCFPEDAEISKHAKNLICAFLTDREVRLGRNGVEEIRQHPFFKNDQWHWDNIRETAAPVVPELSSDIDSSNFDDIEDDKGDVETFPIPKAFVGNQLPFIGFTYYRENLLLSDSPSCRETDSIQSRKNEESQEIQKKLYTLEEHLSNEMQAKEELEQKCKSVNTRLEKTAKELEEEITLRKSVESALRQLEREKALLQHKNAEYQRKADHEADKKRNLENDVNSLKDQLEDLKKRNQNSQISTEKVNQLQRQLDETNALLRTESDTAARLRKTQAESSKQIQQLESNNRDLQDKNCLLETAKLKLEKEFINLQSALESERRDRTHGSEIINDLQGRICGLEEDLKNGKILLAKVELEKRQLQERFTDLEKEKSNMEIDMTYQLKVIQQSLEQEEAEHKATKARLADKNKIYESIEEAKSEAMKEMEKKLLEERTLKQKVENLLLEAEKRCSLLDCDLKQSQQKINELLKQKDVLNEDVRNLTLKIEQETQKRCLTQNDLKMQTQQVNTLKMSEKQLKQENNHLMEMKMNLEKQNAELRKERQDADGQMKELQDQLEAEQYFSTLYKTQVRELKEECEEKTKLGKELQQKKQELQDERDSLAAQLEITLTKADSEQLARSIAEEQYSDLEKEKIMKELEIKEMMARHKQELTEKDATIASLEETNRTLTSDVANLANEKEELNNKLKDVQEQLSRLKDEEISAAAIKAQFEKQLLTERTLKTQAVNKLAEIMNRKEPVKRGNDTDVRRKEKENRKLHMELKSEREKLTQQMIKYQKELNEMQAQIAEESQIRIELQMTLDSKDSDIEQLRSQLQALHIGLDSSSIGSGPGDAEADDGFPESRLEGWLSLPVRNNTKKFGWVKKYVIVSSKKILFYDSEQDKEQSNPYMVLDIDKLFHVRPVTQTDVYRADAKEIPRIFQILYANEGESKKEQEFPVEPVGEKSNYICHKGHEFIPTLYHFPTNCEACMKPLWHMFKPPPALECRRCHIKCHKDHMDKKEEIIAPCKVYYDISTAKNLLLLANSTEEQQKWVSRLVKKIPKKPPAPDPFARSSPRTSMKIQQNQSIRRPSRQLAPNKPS
Sequence of kinases (KINOMEscan panel) (Homo sapiens, UniProt Q9H1R3) (Q9H1R3 whole entry): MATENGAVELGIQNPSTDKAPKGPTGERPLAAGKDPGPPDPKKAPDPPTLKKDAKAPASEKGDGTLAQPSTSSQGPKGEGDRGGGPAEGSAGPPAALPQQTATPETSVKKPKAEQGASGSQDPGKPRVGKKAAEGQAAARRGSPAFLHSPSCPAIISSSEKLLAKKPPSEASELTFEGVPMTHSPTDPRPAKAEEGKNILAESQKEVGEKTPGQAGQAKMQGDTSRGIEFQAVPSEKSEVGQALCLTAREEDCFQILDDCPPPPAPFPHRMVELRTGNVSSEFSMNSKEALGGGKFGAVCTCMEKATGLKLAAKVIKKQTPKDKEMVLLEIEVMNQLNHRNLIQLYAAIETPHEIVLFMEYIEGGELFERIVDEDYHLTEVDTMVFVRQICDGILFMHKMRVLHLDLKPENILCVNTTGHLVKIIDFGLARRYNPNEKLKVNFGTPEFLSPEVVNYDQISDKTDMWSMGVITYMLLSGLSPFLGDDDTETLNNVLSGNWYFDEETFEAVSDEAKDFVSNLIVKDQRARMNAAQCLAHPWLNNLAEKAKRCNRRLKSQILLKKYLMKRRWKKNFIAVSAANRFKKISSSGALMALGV
Sequence of kinases (KINOMEscan panel) (Homo sapiens, UniProt O43353) (O43353 whole entry): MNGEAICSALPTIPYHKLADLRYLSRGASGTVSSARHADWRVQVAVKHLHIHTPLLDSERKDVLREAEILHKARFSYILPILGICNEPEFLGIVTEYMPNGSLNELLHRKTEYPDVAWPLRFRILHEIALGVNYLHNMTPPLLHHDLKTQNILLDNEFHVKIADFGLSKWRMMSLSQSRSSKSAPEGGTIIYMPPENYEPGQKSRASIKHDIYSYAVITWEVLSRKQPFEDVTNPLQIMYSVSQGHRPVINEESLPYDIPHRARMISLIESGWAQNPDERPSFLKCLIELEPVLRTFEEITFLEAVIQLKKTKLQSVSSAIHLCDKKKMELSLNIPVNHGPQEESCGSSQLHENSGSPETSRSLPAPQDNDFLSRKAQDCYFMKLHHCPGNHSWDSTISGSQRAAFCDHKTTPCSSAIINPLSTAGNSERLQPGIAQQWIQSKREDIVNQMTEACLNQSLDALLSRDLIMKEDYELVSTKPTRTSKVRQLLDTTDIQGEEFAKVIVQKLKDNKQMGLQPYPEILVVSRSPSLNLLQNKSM
Sequence of kinases (KINOMEscan panel) (Homo sapiens, UniProt P07332) (P07332 whole entry): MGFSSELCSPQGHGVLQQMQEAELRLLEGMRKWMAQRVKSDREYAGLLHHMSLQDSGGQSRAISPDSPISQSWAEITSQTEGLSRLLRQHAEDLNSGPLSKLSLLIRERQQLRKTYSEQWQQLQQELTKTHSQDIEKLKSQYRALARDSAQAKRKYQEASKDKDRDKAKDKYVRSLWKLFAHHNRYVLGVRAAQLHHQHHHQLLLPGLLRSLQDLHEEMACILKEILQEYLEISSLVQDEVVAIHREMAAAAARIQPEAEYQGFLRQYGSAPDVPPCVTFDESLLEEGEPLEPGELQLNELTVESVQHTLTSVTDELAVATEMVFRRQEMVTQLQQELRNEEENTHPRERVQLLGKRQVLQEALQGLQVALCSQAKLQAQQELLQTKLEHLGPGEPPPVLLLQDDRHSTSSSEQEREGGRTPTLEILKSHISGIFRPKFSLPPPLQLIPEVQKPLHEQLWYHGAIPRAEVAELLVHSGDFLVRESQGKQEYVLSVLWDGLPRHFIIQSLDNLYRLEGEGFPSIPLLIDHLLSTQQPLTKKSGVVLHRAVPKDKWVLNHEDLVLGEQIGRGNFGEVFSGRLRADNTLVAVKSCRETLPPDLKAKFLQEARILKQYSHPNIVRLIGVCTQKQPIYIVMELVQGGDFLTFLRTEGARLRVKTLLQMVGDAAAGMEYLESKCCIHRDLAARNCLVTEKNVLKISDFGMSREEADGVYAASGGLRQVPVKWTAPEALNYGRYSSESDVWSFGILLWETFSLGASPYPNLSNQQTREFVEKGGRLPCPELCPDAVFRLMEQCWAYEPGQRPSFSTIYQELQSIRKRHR

Cc1cccc(-c2nc(Nc3ccncc3)c3ccccc3n2)n1 [NK215]
KINOMEscan ACVR1 [1]: 15 | KINOMEscan RIPK2 [2]: 71 | KINOMEscan FES [3]: 13 | KINOMEscan CILK1 [4]: 0 | KINOMEscan LTK [5]: 21 | KINOMEscan MYLK2 [6]: 7 | KINOMEscan GRK3 [7]: 0 | KINOMEscan ROCK2 [8]: 0 | KINOMEscan SRPK1 [9]: 0
